This note sets out measurements from patent US6177447A (Universiteit van Amsterdam, priority 1996, dated 2001).

As a reminder, the pKi is −log10 of the Ki, conventionally taken in molar units. For orientation: pIC50 means the negative decadic logarithm of the IC50, by convention in mol/L.

In test [1] the target is T1, glucosylceramidase (Homo sapiens, UniProt Q9HCG7).
T1 sequence (Q9HCG7 1-927): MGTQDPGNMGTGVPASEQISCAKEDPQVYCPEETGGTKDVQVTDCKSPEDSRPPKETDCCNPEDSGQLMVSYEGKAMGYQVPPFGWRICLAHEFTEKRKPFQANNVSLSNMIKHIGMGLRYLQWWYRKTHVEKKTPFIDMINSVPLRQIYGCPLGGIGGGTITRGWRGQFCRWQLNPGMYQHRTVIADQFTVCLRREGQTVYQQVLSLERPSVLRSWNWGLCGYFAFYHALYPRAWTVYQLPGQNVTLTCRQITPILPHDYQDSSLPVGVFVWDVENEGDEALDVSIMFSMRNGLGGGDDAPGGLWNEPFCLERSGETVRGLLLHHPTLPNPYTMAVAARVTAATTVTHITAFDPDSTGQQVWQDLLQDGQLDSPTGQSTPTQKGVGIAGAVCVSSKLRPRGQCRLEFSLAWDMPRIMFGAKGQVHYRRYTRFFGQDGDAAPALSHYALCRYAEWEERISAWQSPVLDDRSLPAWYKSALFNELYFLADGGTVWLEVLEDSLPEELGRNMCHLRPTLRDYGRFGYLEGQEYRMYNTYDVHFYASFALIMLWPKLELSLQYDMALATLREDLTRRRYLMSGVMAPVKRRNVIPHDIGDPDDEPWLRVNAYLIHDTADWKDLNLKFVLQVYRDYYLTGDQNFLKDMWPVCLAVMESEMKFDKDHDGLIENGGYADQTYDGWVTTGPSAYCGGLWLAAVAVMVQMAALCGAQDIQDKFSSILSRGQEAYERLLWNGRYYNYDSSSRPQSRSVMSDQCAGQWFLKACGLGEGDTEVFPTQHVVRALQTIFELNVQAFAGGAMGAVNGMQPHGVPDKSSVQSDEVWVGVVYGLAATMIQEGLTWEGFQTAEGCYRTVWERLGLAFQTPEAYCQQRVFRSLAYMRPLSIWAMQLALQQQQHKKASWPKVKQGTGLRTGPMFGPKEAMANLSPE
The test is described as follows: glucosylceramidase activity towards 4MU-b-glucoside in conduritol B-epoxide pre-treated membrane suspension from human spleen. The following applies: for inhibition of glucosylceramidase, in words: comparison among N-alkyl derivatives.

Test [2] deals with chitotriosidase. The test is described as follows: chitotriosidase secretion by cultured macrophages. Format: cell-based, human. The settings on record: Homo sapiens, Macrophage, 96 h, 4 days, relative to no inhibitor (100%).
In test [3] the target is lysosomal a-glucosidase (Homo sapiens, UniProt P10253). Description: purified lysosomal a-glucosidase activity towards 4MU-a-glucoside. Type of test: biochemical.
In test [4] the target is T2, glucocerebrosidase (Homo sapiens, UniProt P04062).
T2 sequence (P04062 40-536): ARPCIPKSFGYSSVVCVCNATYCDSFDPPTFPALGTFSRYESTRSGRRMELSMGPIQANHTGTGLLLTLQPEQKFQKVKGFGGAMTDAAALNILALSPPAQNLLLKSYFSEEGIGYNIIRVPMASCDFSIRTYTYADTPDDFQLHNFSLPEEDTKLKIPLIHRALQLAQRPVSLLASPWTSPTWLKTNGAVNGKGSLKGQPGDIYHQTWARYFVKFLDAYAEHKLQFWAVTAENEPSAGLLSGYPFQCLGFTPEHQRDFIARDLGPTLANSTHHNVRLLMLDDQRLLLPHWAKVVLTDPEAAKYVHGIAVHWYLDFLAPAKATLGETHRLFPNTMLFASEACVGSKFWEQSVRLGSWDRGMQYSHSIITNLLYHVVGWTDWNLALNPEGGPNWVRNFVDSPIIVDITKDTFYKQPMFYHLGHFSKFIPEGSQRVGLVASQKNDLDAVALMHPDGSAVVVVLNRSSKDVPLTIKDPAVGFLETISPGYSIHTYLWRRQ
The test is described as follows: glucocerebrosidase activity in intact melanoma cells (4MU-b-glucoside, conduritol B-epoxide sensitive). Type of test: cell-based. Set-up: the hydrolysis of 4MU-b-glucoside by cultured melanoma cells; endogenous in cells.

Test [5] concerns the target T2, glucocerebrosidase. Description: conduritol B-epoxide inhibitable glucocerebrosidase activity in membrane fraction from human spleen. Format: biochemical. The following applies: membrane suspension, 4MU-b-glucoside, pH 5.2; read-out: apparent Ki GLUCOCEREBROSIDASE MEMBRANES
Test [6] concerns the target T1, glucosylceramidase. Description: glucosylceramidase activity in intact melanoma cells (4MU-b-glucoside, conduritol B-epoxide insensitive). Format: cell-based. Also on record: endogenous in cells.
Test [7] concerns the target T3, glucocerebrosidase (Ceredase) (Homo sapiens, UniProt P04062).
T3 construct: purchased Genzyme Corp. Boston,USA; host or cells: human placenta
T3 sequence (P04062 40-536): T2 sequence (P04062 40-536)
The test is described as follows: activity of soluble human placental glucocerebrosidase (Ceredase) towards 4MU-b-glucoside. Type of test: biochemical. The following applies: soluble enzyme, 0.25% sodium taurocholate, 0.1% Triton X-100, pH 5.2; read-out: apparent Ki GLUCOCEREBROSIDASE CEREDASE

[8] abbreviates: intact melanoma cells, read-out: IC50 GLUCOCEREBROSIDASE
Setting [9] is: 4MU-a-glucoside, pH 4.0, read-out: apparent Ki A-GLUCOSIDASE
Setting [10] is: read-out: IC50 GLUCOSYLCERAMIDASE
Setting [11] is: read-out: apparent Ki GLUCOSYLCERAMIDASE, membrane suspension, 4MU-b-glucoside, pH 5.2, competitive inhibition assumed.

pIC50, pKi: −log10 of the molar value. Read-outs that look alike come from different tables or passages of the source.

For `CCCCCCN1C[C@H](O)[C@@H](O)[C@H](O)[C@H]1CO` [N-hexyl-deoxynojirimycin, reference compound], the “inhibition of glucosylceramidase, in words” value in test [1] was “less potent inhibitor”.

In turn, `CCCCN1C[C@H](O)[C@@H](O)[C@H](O)[C@H]1CO` [BUTYLDNJ, butyl-deoxynojirimycin] displayed an activity at 0.5 µM in test [2] (0.5 uM) of 68%. Besides, in test [2] (5 uM), the activity at 5 µM worked out at 49%. The molecule also had an activity at 50 µM in test [2] (50 uM) of 28%. In test [3], the negative-log Ki (pKi) is 5.19.

Regarding `CCCCCN1C[C@H](O)[C@@H](O)[C@H](O)[C@H]1CO` [PENTYLDNJ, N-pentyl DNJ, reference compound], the negative-log IC50 (pIC50) was less than 6.00 in test [4] (setting [8]) and 6.82 in test [6] (IC50 GLUCOSYLCERAMIDASE). Also, the negative logarithm of the Ki (pKi) in test [5] was 5.07; in test [3], 5.43; in test [7] it was 3.60; in test [1], 7.42. The “inhibition of glucosylceramidase, in words” value in test [1] is recorded as “Optimal inhibition”.

For the molecule `CCCN1C[C@H](O)[C@@H](O)[C@H](O)[C@H]1CO` [PROPYLDNJ, N-propyl DNJ, reference compound], the pIC50 is less than 6.00 in test [4] and 6.19 in test [6] (IC50 GLUCOSYLCERAMIDASE). Further, the negative logarithm of the Ki (pKi) was 3.48 in test [5], 5.03 in test [3], 3.26 in test [7] and 6.91 in test [1].

With `CCCCC(=O)N1C[C@H](O)[C@@H](O)[C@H](O)[C@H]1CO` [PENTANOYLDNJ, N-pentanoyl DNJ, reference compound], the results for the pIC50 in test [4] (setting [8]) and in test [6] (setting [10]) were less than 6.00 and 4.52, respectively. Further, the pKi was 4.08 in test [5], 5.62 in test [3] (setting [9]), 3.17 in test [7] and 4.08 in test [1].

As to `O=C(CCCC(=O)N1C[C@H](O)[C@@H](O)[C@H](O)[C@H]1CO)OCC12CC3CC(CC(C3)C1)C2` [P4], the pIC50 is 5.30 in test [4] (setting [8]) and 3.70 in test [6] (setting [10]). For the same molecule, the pKi in test [5] is 5.49; in test [3] (setting [9]), less than 4.00; in test [7], 4.71; in test [1] (setting [11]), 3.34. In addition, in test [3], the “inhibition of lysosomal a-glucosidase, in words” value is given as “very poor inhibitors”.

For the molecule `O=C(CCCC(=O)N1C[C@H](O)[C@@H](O)[C@H](O)[C@H]1CO)Oc1cc2ccccc2c2ccccc12` [P16], the pIC50 in test [4] (read-out: IC50 GLUCOCEREBROSIDASE, intact melanoma cells) is less than 6.00. The pKi was 6.36 in test [5]; less than 4.00 in test [3] (read-out: apparent Ki A-GLUCOSIDASE, 4MU-a-glucoside, pH 4.0); 4.94 in test [7]. The “inhibition of lysosomal a-glucosidase, in words” value in test [3] is listed as “very poor inhibitors”.

On to `CC(C)CCC[C@@H](C)[C@H]1CC[C@H]2[C@@H]3CC=C4C[C@@H](OC(=O)CCCC(=O)N5C[C@H](O)[C@@H](O)[C@H](O)[C@H]5CO)CC[C@]4(C)[C@H]3CC[C@]12C` [P9], for which the pKi was less than 4.00 in test [5], less than 4.00 in test [3] (setting [9]), 4.29 in test [7] and less than 4.00 in test [1] (setting [11]). Further, the “inhibition of lysosomal a-glucosidase, in words” value in test [3] was “very poor inhibitors”.

`O=C(CCCC(=O)N1C[C@H](O)[C@@H](O)[C@H](O)[C@H]1CO)OC12CC3CC(CC(C3)C1)C2` [P11]: the pIC50 is 5.10 in test [4] (setting [8]) and 3.70 in test [6] (setting [10]). The negative-log Ki (pKi) was 5.39 in test [5], less than 4.00 in test [3] (setting [9]), 3.95 in test [7] and 3.51 in test [1] (setting [11]). The “inhibition of lysosomal a-glucosidase, in words” value in test [3] was “very poor inhibitors”.

For the molecule `CC(C)CCC[C@@H](C)[C@H]1CC[C@H]2[C@@H]3CC[C@H]4C[C@@H](OC(=O)CCCC(=O)N5C[C@H](O)[C@@H](O)[C@H](O)[C@H]5CO)CC[C@]4(C)[C@H]3CC[C@]12C` [P13], the pKi was less than 4.00 in test [5], less than 4.00 in test [3] (setting [9]), 4.95 in test [7] and less than 4.00 in test [1] (setting [11]). In test [3], the “inhibition of lysosomal a-glucosidase, in words” value is recorded as “very poor inhibitors”.
